Data published in patent US10624876B2, “Derivatives of indole for the treatment of endometriosis” (BIOKINESIS, priority 2016, dated 2020).

Tested on: endometriosis lesions
Experiment: Ex vivo clinical evaluation of endometriosis lesions (intraperitoneal uterine horn implants) in syngenic mice
Settings: estradiol at D-1, implants at D0, nanosuspension (50 mg/mL) i.v. 100 mg/kg/BW every 2 days from D7 to D21, sacrificed at D23, versus control group (Vehicle)
Description: FIG. 2: Ex vivo clinical evaluation (implant volume (mm^3) and weight (g)) in syngenic mice.
Example 1: Echographic and Ex Vivo Evaluation of Endometriosis Lesions in Syngenic Mice Treated with Compound 38
More particularly, 20 syngenic mices were engraved estradiol at D-1. Intraperitoneal Uterine Horsn implant have been implanted in each mouse at DO. A nanosuspension of compound 38 (50 mg/mL) has been intravenously administered in 10 mice (treated group) at a 100 mg/kg/BW dose from D7 to D21 every 2 days.
Mices have been sacrified at D23 and implants have been removed for ex vivo clinical evaluation.

**Q.** What does the source list for `COc1ccc(C#N)cc1/C=C(\C#N)c1c[nH]c2ccc(Br)cc12` [Compound 38, (Z)-3-(2-(5-bromo-1H-indol-3-yl)-2-cyanovinyl)-4-methoxybenzonitrile]?
**A.** implant volume: lower than those of the control group; implant weight: lower than those of the control group
